Assay results from the supplement of paper PMC10307832.

How the values were obtained:
Experiment in all cases: relative viability (nuclei count vs DMSO), 5 days (fraction); higher = more cells survive
[1] = compound: C1/C(=C\C2=CC=CS2)/C(=O)/C(=C/C3=CC=CS3)/C1 + COc1cccc2cc(-c3nc([C@H]4CC[C@H](C(=O)O)CC4)n4ncnc(N)c34)[nH]c12 [OSI-027] (partner 0.5 µM)
Method in brief: (§1)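 Values are medians from duplicate plates. Each reflects relative viability, defined as the nuclei count of treated wells over that of vehicle wells. Lung cancer cell lines in 1536-well plates were pin-tool dosed one day after seeding with one drug alone or with a fixed anchor-drug dose plus five library-drug doses (not always all listed) in √10 steps, then fixed, stained and imaged at 4× after 5 days.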

[2] = compound: C1/C(=C\C2=CC=CS2)/C(=O)/C(=C/C3=CC=CS3)/C1 + Nc1ncn([C@H]2C[C@H](O)[C@@H](CO)O2)c(=O)n1 [Decitabine] (partner 2 µM)
Method in brief: as §1

TPCA-1 + Navitoclax = compound: C1=CC(=CC=C1C2=CC(=C(S2)NC(=O)N)C(=O)N)F [TPCA-1] + CC1(C)CCC(c2ccc(Cl)cc2)=C(CN2CCN(c3ccc(C(=O)NS(=O)(=O)c4ccc(N[C@H](CCN5CCOCC5)CSc5ccccc5)c(S(=O)(=O)C(F)(F)F)c4)cc3)CC2)C1 [Navitoclax] (partner 0.5 µM)
Method in brief: as §1

TPCA-1 + AZD7762 = compound: C1=CC(=CC=C1C2=CC(=C(S2)NC(=O)N)C(=O)N)F [TPCA-1] + NC(=O)Nc1cc(-c2cccc(F)c2)sc1C(=O)N[C@H]1CCCNC1 [AZD7762] (partner 0.2 µM)
Method in brief: as §1

| Cell Line | relative viability ([1]; first compound 0.2 µM) | relative viability ([1]; first compound 0.6325 µM) | relative viability ([1]; first compound 2 µM) | relative viability ([1]; first compound 6.325 µM) | relative viability ([1]; first compound 20 µM) | relative viability ([2]; first compound 0.2 µM) | relative viability ([2]; first compound 0.6325 µM) | relative viability ([2]; first compound 2 µM) | relative viability ([2]; first compound 6.325 µM) | relative viability ([2]; first compound 20 µM) | relative viability (TPCA-1 + Navitoclax; first compound 0.04 µM) | relative viability (TPCA-1 + Navitoclax; first compound 0.1265 µM) | relative viability (TPCA-1 + Navitoclax; first compound 0.4 µM) | relative viability (TPCA-1 + Navitoclax; first compound 1.265 µM) | relative viability (TPCA-1 + Navitoclax; first compound 4 µM) | relative viability (TPCA-1 + AZD7762; first compound 0.04 µM) | relative viability (TPCA-1 + AZD7762; first compound 0.1265 µM) | relative viability (TPCA-1 + AZD7762; first compound 0.4 µM) | relative viability (TPCA-1 + AZD7762; first compound 1.265 µM) | relative viability (TPCA-1 + AZD7762; first compound 4 µM) |
| --- | --- | --- | --- | --- | --- | --- | --- | --- | --- | --- | --- | --- | --- | --- | --- | --- | --- | --- | --- | --- |
| NCI-H1355 | 0.481 | 0.42 | 0.412 | 0.335 | 0.424 | 0.369 | 0.388 | 0.319 | 0.304 | 0.325 | 1.02 | 0.903 | 0.912 | 0.826 | 0.686 | 0.831 | 0.7 | 0.756 | 0.675 | 0.707 |
| EKVX | 0.679 | 0.673 | 0.717 | 0.615 | 0.646 | 0.359 | 0.267 | 0.406 |  | 0.452 | 0.956 | 0.818 | 0.913 | 0.793 | 0.836 | 0.739 |  | 0.813 | 0.669 | 0.677 |
| NCI-H441 | 0.795 | 0.661 | 0.548 | 0.602 | 0.596 | 0.265 | 0.267 | 0.247 | 0.234 | 0.414 | 0.604 | 0.405 | 0.736 | 0.578 | 0.297 | 1.21 | 0.915 | 1.19 | 1.04 | 1 |
| NCI-H1975 | 0.944 | 0.689 |  | 0.661 | 0.739 | 0.404 | 0.356 | 0.324 | 0.365 | 0.385 | 1.16 | 1.02 | 1.1 | 0.904 | 0.782 | 0.717 | 0.682 | 0.763 | 0.923 | 0.522 |
| HCC-78 | 0.372 | 0.404 | 0.431 | 0.37 | 0.326 | 0.653 | 0.763 | 0.755 | 0.714 | 0.686 | 0.973 | 0.653 | 0.726 | 0.652 | 0.582 | 0.745 | 0.742 | 0.801 | 0.545 | 0.497 |
| NCI-H2085 | 0.884 | 1.04 | 0.754 | 0.685 | 0.678 | 0.56 | 0.544 | 0.597 | 0.498 | 0.508 | 1.14 | 1.1 | 1.2 | 1.12 | 1.13 |  | 1.02 | 1.01 | 0.9 | 0.669 |
| H3255 | 0.585 | 0.589 | 0.541 | 0.568 | 0.566 | 0.81 | 0.538 | 0.527 | 0.55 | 0.494 | 0.536 | 0.507 | 0.473 | 0.396 | 0.242 | 0.925 | 0.835 | 0.863 | 0.688 | 0.694 |
| NCI-H2087 | 0.716 | 0.688 | 0.769 | 0.457 | 0.42 | 0.251 | 0.286 | 0.36 | 0.305 | 0.224 | 1.02 | 0.818 | 0.936 | 0.791 | 0.356 | 1.24 | 1.3 | 1.34 | 1.29 | 0.758 |
| LC-2-ad | 0.817 | 0.941 | 0.984 | 0.708 | 0.785 | 0.861 | 0.823 | 0.797 | 0.666 | 0.748 | 0.361 | 0.377 | 0.414 | 0.357 | 0.11 | 0.883 | 0.803 | 0.837 | 0.83 | 0.221 |
| PC-3 [JPC-3] | 0.774 | 0.715 | 0.719 | 0.552 | 0.778 |  | 0.792 | 0.849 | 0.694 | 0.815 | 0.839 | 0.807 | 0.802 | 0.677 | 0.719 | 0.844 | 0.802 | 0.85 | 0.823 | 0.655 |
| EBC-1 |  |  |  |  |  |  |  |  |  |  | 0.355 | 0.397 | 0.564 | 0.351 | 0.293 |  |  |  |  |  |
| HCC-15 | 0.769 | 0.684 | 0.683 | 0.548 | 0.665 | 0.677 | 0.688 | 0.661 | 0.619 | 0.609 | 0.825 | 0.64 | 0.682 | 0.686 | 0.519 | 1.31 | 1.09 | 1.21 | 1.28 | 1.15 |
| NCI-H1563 | 0.774 | 0.787 | 0.717 | 0.729 | 0.773 |  |  |  |  |  |  |  |  |  |  |  |  |  |  |  |
| COR-L 105 | 0.679 | 0.849 | 0.781 |  | 0.632 | 0.526 | 0.668 | 0.699 | 0.444 | 0.7 | 0.964 | 0.642 | 0.962 | 0.636 | 0.64 |  |  |  |  |  |
| NCI-H520 | 0.265 | 0.269 | 0.295 | 0.306 | 0.244 | 0.597 | 0.518 | 0.548 |  | 0.492 | 1.17 | 0.96 | 1.1 | 0.977 | 1.08 |  |  |  |  |  |
| LU99A | 0.329 | 0.286 | 0.33 | 0.322 | 0.291 | 0.878 | 0.969 | 0.982 | 0.629 | 0.866 | 0.976 | 0.77 | 0.802 | 0.766 | 0.473 | 0.356 | 0.364 | 0.412 | 0.281 | 0.247 |
| NCI-H1666 | 0.874 | 0.863 | 0.83 | 0.732 | 0.964 | 0.697 | 0.732 | 0.751 | 0.636 | 0.736 | 1.12 | 0.848 | 1.03 | 0.943 | 1.05 | 0.895 | 0.659 | 0.79 | 0.714 | 0.757 |
| NCI-H2170 | 0.713 | 0.728 | 0.77 | 0.416 | 0.785 | 0.439 | 0.436 | 0.466 | 0.466 | 0.479 | 0.666 | 0.52 | 0.497 | 0.559 | 0.264 | 1.13 | 0.815 | 0.892 | 0.766 | 0.474 |
